Key:
[1] = biological target: T1, BuChE (EC 3.1.1.8) from horse serum (Equus caballus, UniProt P81908); test: biochemical; format: biochemical; conditions: for IC50: BuChE from horse serum, mean ± SEM of three experiments; for selective index (selectivity on BuChE): selectivity on BuChE over AChE (eeAChE, eqBuChE)
T1 construct: purchased Sigma-Aldrich C0663; host or cells: equine serum
Experimental: (§1) AChE (EC 3.1.1.7, Type VI-S, from electric eel, C3389; from human, C1682) and BuChE (EC 3.1.1.8, from equine serum, C0663; from human, B4186), 5,5'-dithiobis (2-nitrobenzoic acid) (DTNB, D218200), acetylthiocholine iodide (ATC, A5751), and butyrylthiocholine iodide (BTC, B3253) were obtained from Sigma-Aldrich (St. Louis, MO).
(§2) The inhibitory effects of the synthesised compounds in this paper were evaluated according to our previously reported method. […] ATC/BTC iodide solution (0.075 M) was prepared in deionised water. […] The assay buffer was prepared as follows: potassium dihydrogen phosphate (1.36 g, 10 mmol) was dissolved in 100 ml of water. The pH of the solution was then adjusted to 8.0 ± 0.1 with KOH. Stock solutions of the test samples were dissolved in ethanol to give a final concentration of 10^−4 M when diluted to the final volume of 3.32 ml. For each compound, a dilution series of at least five different concentrations (normally 10^−5–10^−9 M) were prepared.
(§3) For measurement, a cuvette containing 3.0 ml of phosphate buffer, 100 µL of AChE or BuChE, 100 µL of DTNB, and 100 µL of the test compound solution were added in sequence. The reaction was initiated after adding 20 µL of ATC or BTC, and the solution was mixed immediately. […] For the reference value, 100 µL of water replaced the test compound solution. For the blank control, additionally 100 µL of water replaced the enzyme solution. The measurement for each concentration was assayed in triplicate. GraphPad Prism 5 was used for data processing. The inhibition curve was fitted by plotting percentage enzyme activity (100% for the reference) versus logarithm of test compound concentration. The IC50 values were calculated according to the curve, and the data were shown in mean ± SEM.
(§4) The inhibitory effects on ChEs of all the target compounds were determined according to Ellman’s method. AChE from electrophorus electricus (eeAChE) and BuChE from equine serum (eqBuChE) were used in the assays.

[2] = biological target: T2, AChE (EC 3.1.1.7) from electric eel (Electrophorus electricus, UniProt O42275); test: biochemical; conditions: for IC50: AChE from electric eel, mean ± SEM of three experiments; for Selectivity index (SI) = BuChE IC50/AChE IC50: eqBuChE IC50 / eeAChE IC50
T2 construct: purchased Sigma-Aldrich C3389
Experimental: as §1, §2, §3, §4

T1 sequence (P81908 whole entry): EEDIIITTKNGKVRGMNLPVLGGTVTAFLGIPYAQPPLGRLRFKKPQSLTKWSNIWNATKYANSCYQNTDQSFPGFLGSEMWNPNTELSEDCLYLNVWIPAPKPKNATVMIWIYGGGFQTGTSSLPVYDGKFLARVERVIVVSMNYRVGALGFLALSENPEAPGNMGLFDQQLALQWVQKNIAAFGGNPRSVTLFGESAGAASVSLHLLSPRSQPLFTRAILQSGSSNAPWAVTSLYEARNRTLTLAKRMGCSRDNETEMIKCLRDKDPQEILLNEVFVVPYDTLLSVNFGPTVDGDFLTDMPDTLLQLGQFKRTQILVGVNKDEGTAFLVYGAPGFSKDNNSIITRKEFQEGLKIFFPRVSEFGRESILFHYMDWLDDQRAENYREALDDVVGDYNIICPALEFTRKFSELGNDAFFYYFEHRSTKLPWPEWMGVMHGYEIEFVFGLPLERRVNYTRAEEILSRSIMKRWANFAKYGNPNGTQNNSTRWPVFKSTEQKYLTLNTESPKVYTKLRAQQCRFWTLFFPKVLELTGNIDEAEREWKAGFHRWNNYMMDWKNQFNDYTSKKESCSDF
T2 sequence (O42275 24-633): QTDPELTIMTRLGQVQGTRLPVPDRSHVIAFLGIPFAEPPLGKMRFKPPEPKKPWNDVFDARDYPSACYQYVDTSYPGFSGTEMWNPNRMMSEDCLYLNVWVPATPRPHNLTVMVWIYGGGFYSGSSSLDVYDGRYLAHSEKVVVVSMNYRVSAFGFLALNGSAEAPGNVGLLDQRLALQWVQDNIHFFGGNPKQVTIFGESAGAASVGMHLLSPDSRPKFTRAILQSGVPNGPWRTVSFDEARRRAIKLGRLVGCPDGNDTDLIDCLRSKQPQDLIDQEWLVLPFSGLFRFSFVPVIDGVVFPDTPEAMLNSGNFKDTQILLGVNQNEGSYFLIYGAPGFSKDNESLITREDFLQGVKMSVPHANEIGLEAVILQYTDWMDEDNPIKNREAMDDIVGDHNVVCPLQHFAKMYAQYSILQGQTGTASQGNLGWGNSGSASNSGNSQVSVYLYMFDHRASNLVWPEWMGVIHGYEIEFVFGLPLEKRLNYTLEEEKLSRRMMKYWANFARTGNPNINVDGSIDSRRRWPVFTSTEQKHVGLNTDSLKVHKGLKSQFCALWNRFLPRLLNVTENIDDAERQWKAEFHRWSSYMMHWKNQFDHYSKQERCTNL

Row | SMILES | IC50 [1] [nM] | IC50 [2] [nM] | Selectivity index (SI) = BuChE IC50/AChE IC50 [2] | selective index (selectivity on BuChE) [1]
1 | O=C(/C=C/c1ccccc1)NCCNc1c2c(nc3ccccc13)CCCC2 [Compound 9] | 69.1 ± 27.3 | 328 ± 122 | 0.2 | 
2 | O=C(/C=C/c1ccccc1)NCCCNc1c2c(nc3ccccc13)CCCC2 [Compound 10] | 3.5 ± 0.4 | 100 ± 5.2 | 0.03 | 28.7
3 | O=C(C=Cc1ccccc1)NCCCCNc1c2c(nc3ccccc13)CCCC2 [Compound 11, N-(4-((1,2,3,4-tetrahydroacridin-9-yl)amino)butyl)cinnamamide] | 2.9 ± 0.4 | 209 ± 76 | 0.01 | 71.17
4 | O=C(C=Cc1ccccc1)NCCCCCCNc1c2c(nc3ccccc13)CCCC2 [Compound 12, N-(6-((1,2,3,4-tetrahydroacridin-9-yl)amino)hexyl)cinnamamide] | 34.4 ± 16.6 | 26.5 ± 10.7 | 1.3 | 
5 | O=C(/C=C/c1ccccc1)NCCCCCCCCNc1c2c(nc3ccccc13)CCCC2 [Compound 13] | 7.8 ± 4.7 | 22.8 ± 9.2 | 0.3 | 
6 | Cc1ccccc1/C=C/C(=O)NCCCCCCNc1c2c(nc3ccccc13)CCCC2 [Compound 14, (E)-N-(6-((1,2,3,4-tetrahydroacridin-9-yl)amino)hexyl)-3-(o-tolyl)acrylamide] | 6 ± 1.5 | 36 ± 12.3 | 0.2 | 
7 | Cc1cccc(/C=C/C(=O)NCCCCCCNc2c3c(nc4ccccc24)CCCC3)c1 [Compound 15, (E)-N-(6-((1,2,3,4-tetrahydroacridin-9-yl)amino)hexyl)-3-(m-tolyl)acrylamide] | 37.3 ± 7.2 | 53.1 ± 6.9 | 0.7 | 
8 | Cc1ccc(/C=C/C(=O)NCCCCCCNc2c3c(nc4ccccc24)CCCC3)cc1 [Compound 16, (E)-N-(6-((1,2,3,4-tetrahydroacridin-9-yl)amino)hexyl)-3-(p-tolyl)acrylamide] | 54.4 ± 11.7 | 22 ± 3.7 | 2.5 | 
9 | O=C(/C=C/c1ccccc1[N+](=O)[O-])NCCCCCCNc1c2c(nc3ccccc13)CCCC2 [Compound 17, (E)-3-(2-nitrophenyl)-N-(6-((1,2,3,4-tetrahydroacridin-9-yl)amino)hexyl)acrylamide] | 3.6 ± 0.3 | 17.5 ± 3.7 | 0.2 | 
10 | O=C(/C=C/c1cccc([N+](=O)[O-])c1)NCCCCCCNc1c2c(nc3ccccc13)CCCC2 [Compound 18, (E)-3-(3-nitrophenyl)-N-(6-((1,2,3,4-tetrahydroacridin-9-yl)amino)hexyl)acrylamide] | 6.8 ± 0.6 | 3.6 ± 0.5 | 1.9 | 
11 | O=C(/C=C/c1ccc(Cl)c([N+](=O)[O-])c1)NCCCCCCNc1c2c(nc3ccccc13)CCCC2 [Compound 20, (E)-3-(4-chloro-3-nitrophenyl)-N-(6-((1,2,3,4-tetrahydroacridin-9-yl)amino)hexyl)acrylamide] | 11.1 ± 2.2 | 6.2 ± 2 | 1.8 | 
12 | O=C(/C=C/c1ccccc1C(F)(F)F)NCCCCCCNc1c2c(nc3ccccc13)CCCC2 [Compound 21, (E)-N-(6-((1,2,3,4-tetrahydroacridin-9-yl)amino)hexyl)-3–(2-(trifluoromethyl)phenyl)acrylamide] | 2.4 ± 0.6 | 41.7 ± 8.5 | 0.04 | 
13 | O=C(/C=C/c1cccc(C(F)(F)F)c1)NCCCCCCNc1c2c(nc3ccccc13)CCCC2 [Compound 22, (E)-N-(6-((1,2,3,4-tetrahydroacridin-9-yl)amino)hexyl)-3–(3-(trifluoromethyl)phenyl)acrylamide] | 81.1 ± 15.7 | 61.3 ± 16.7 | 1.3 | 
14 | O=C(/C=C/c1ccc(C(F)(F)F)cc1)NCCCCCCNc1c2c(nc3ccccc13)CCCC2 [Compound 23, (E)-N-(6-((1,2,3,4-tetrahydroacridin-9-yl)amino)hexyl)-3–(4-(trifluoromethyl)phenyl)acrylamide] | 16.4 ± 1.8 | 8.1 ± 0.3 | 2.0 | 
15 | O=C(/C=C/c1ccc(F)cc1)NCCCCCCNc1c2c(nc3ccccc13)CCCC2 [Compound 24, (E)-3-(4-fluorophenyl)-N-(6-((1,2,3,4-tetrahydroacridin-9-yl)amino)hexyl)acrylamide] | 65.9 ± 21.4 | 15.4 ± 3.3 | 4.3 | 
16 | O=C(/C=C/c1ccccc1Cl)NCCCCCCNc1c2c(nc3ccccc13)CCCC2 [Compound 25, (E)-3-(2-chlorophenyl)-N-(6-((1,2,3,4-tetrahydroacridin-9-yl)amino)hexyl)acrylamide] | 8.7 ± 2.7 | 14.2 ± 3.2 | 0.6 | 
17 | O=C(/C=C/c1cccc(Cl)c1)NCCCCCCNc1c2c(nc3ccccc13)CCCC2 [Compound 26, (E)-3-(3-chlorophenyl)-N-(6-((1,2,3,4-tetrahydroacridin-9-yl)amino)hexyl)acrylamide] | 9.2 ± 2.5 | 16.2 ± 6.5 | 0.6 | 
18 | O=C(/C=C/c1ccc(Br)cc1)NCCCCCCNc1c2c(nc3ccccc13)CCCC2 [Compound 28, (E)-3-(4-bromophenyl)-N-(6-((1,2,3,4-tetrahydroacridin-9-yl)amino)hexyl)acrylamide] | 29.9 ± 1.8 | 19.1 ± 2 | 1.6 | 
19 | N#Cc1cccc(/C=C/C(=O)NCCCCCCNc2c3c(nc4ccccc24)CCCC3)c1 [Compound 29] | 68.5 ± 13.6 | 5.1 ± 0.8 | 13.4 | 
20 | COc1ccc(/C=C/C(=O)NCCCCCCNc2c3c(nc4ccccc24)CCCC3)c(OC)c1OC [Compound 31, (E)-N-(6-((1,2,3,4-tetrahydroacridin-9-yl)amino)hexyl)-3–(2,3,4-trimethoxyphenyl)acrylamide] | 8.1 ± 2 | 24.1 ± 8.1 | 0.3 | 
21 | COc1cc(/C=C/C(=O)NCCCCCCNc2c3c(nc4ccccc24)CCCC3)cc(OC)c1OC [Compound 32, (E)-N-(6-((1,2,3,4-tetrahydroacridin-9-yl)amino)hexyl)-3–(3,4,5-trimethoxyphenyl)acrylamide] | 3.4 ± 0.4 | 6.4 ± 2.2 | 0.5 | 
22 | O=C(/C=C/c1cccc(O)c1)NCCCCCCNc1c2c(nc3ccccc13)CCCC2 [Compound 33, (E)-3-(3-hydroxyphenyl)-N-(6-((1,2,3,4-tetrahydroacridin-9-yl)amino)hexyl)acrylamide] | 25.1 ± 6.5 | 6.4 ± 2.1 | 3.9 | 
23 | O=C(/C=C/c1ccc(O)cc1)NCCCCCCNc1c2c(nc3ccccc13)CCCC2 [Compound 34, (E)-3-(4-hydroxyphenyl)-N-(6-((1,2,3,4-tetrahydroacridin-9-yl)amino)hexyl)acrylamide] | 43.5 ± 9.3 | 2.2 ± 0.3 | 19.8 | 
24 | COc1cc(/C=C/C(=O)NCCCCCCNc2c3c(nc4ccccc24)CCCC3)ccc1OCc1ccccc1 [Compound 36] | 29.8 ± 7.3 | 86.3 ± 30 | 0.3 | 
25 | COc1cc(/C=C/C(=O)NCCCCCCNc2c3c(nc4ccccc24)CCCC3)ccc1OCc1ccc(Cl)cc1 [Compound 37] | 22.6 ± 7.1 | 104 ± 26.4 |  | 
